Measured values published in patent publication US12370170B2, “Composition comprising naphthoquinone-based compound as active ingredient, for preventing or ameliorating fatigue, cachexia, pain, cognitive decline and hematopoietic stem cell reduction which are side effects related to anticancer drug treatment” (NADIANBIO LTD., priority 2016, dated 2025).

Assays:
Assay type in all cases: in vivo, C57BL/6 mice
[1] = Muscle loss (body weight, gastrocnemius muscle weight) in cyclophosphamide induced animal model; details: cyclophosphamide 150 mg/kg+200 mg/kg i.p.; dunnione 20 mg/kg oral daily from 3 days before; 48 hours after
Protocol: (§1) In this invention, 11 weeks old C57BL/6 mice were used. All the mice used in the experiments of the invention were raised in an aseptic animal room at the temperature of 22˜26 L with the humidity of 55˜60%. The mice were allowed to take general solid feed (SAMTACO Co., Ltd., Korea) and water freely. The mice were adapted for 1 week before the experiment. All the experiments were performed after obtaining approval from the clinical trial management committee in accordance with the laboratory animal care and ethics regulations of Wonkwang University. The mouse animal model of the present invention was treated with different anticancer drugs. Particularly, one kind of anticancer drug was administered intraperitoneally one time or more, or several kinds of anticancer drugs were administered once or more times or at different concentrations, leading to the establishment of the animal model of the invention. […]
In the cyclophosphamide (150 mg/kg+200 mg/kg) induced animal model prepared by the same manner as described in Example 9, the changes of body weight and gastrocnemius muscle weight were measured after the drug treatment in order to investigate the regulatory effect of dunnione on muscle loss.

[2] = system: inflammatory cytokines TNF-α and IL-1β; test: Brain inflammatory response: TNF-α and IL-1β in hypothalamus (RT-PCR, ELISA), 4×ACP animal model; details: dunnione 80 mg/kg oral
Protocol: (§2) In this invention, 11 weeks old C57BL/6 mice were used. All the mice used in the experiments of the invention were raised in an aseptic animal room at the temperature of 22˜26 L with the humidity of 55˜60%. The mice were allowed to take general solid feed (SAMTACO Co., Ltd., Korea) and water freely. The mice were adapted for 1 week before the experiment. All the experiments were performed after obtaining approval from the clinical trial management committee in accordance with the laboratory animal care and ethics regulations of Wonkwang University. The mouse animal model of the present invention was treated with different anticancer drugs. Particularly, one kind of anticancer drug was administered intraperitoneally one time or more, or several kinds of anticancer drugs were administered once or more times or at different concentrations, leading to the establishment of the animal model of the invention. In the adriamycin-induced animal model, the mice were divided into 6 groups as follows: the control group administered with PBS (Control, 5 mice), the group administered intraperitoneally with adriamycin (4 mg/kg/day) 3 times (ADR, 5 mice), the group administered orally with dunnione or β-lapachone from 3 days before the adriamycin treatment daily (20 mg/kg, 5 mice), and the group administered with dunnione or β-lapachone (20 mg/kg, 5 mice). 4 days after the final adriamycin treatment, analysis of the mice was performed.
The present inventors established an animal model co-treated with three different anticancer drugs in this experiment. The anticancer drugs used herein were adriamycin (ADR), cyclophosphamide (CYP) and paclitaxel (PTX), which were indicated as ACP. […]
A homogenate was prepared with the mouse hypothalamus extracted from the 4×ACP animal model prepared by the same manner as described in Example 8. Then, the expressions of the inflammatory cytokines TNF-α and IL-1β in the brain tissue were analyzed by ELISA.

[3] = system: inflammatory cytokines TNF-α, IL-1β, IL-6 and IL-17; test: Plasma inflammatory cytokines by ELISA in 3× and 6×ACP animal model; details: dunnione 20 mg/kg oral daily from 3 days before, 3 days after ACP
Protocol: as §1
Plasma was isolated from the 3× and 6×ACP animal model prepared by the same manner as described in Example 7, and the inflammatory cytokines TNF-α, IL-1β, IL-6 and IL-17 were analyzed by ELISA.

[4] = system: orexin; test: Orexin protein in hypothalamus by ELISA, 4×ACP animal model; details: dunnione 80 mg/kg oral daily from 3 days before, 2 days after ACP
Protocol: as §1
To analyze orexin protein in the 4×ACP animal model prepared by the same manner as described in Example 8, the hypothalamus of the mouse was extracted, followed by the preparation of a homogenate. Orexin (MyBioSource, MBS2505504) was analyzed by ELISA to investigate the regulatory effect of β-lapachone on orexin.

[5] = system: F4/80 positive cells (macrophages); test: Inflow of macrophages into femur, F4/80 immunohistostaining, 4×ACP animal model; details: dunnione 80 mg/kg oral
Protocol: as §2, with “4 days after the final adriamycin treatment, analysis of the mice was performed.” left out

CC1OC2=C(C(=O)C(=O)c3ccccc32)C1(C)C (centres unmarked) [dunnione, 2,3-dihydro-2,3,3-trimethyl naphtho [1,2-b]furan-4,5-dione]
reduction of gastrocnemius muscle weight and gastrocnemius muscle weight change [1]: significantly restored | weight loss (body weight) [1]: significantly restored | up-regulations of TNF-α and IL-1β at protein level in the hypothalamus ([2]; ELISA): significantly suppressed | up-regulations of TNF-α and IL-1β at RNA level in the hypothalamus ([2]; RT-PCR): significantly suppressed | level of inflammatory cytokines (TNF-α, IL-1β, IL-6, IL-17) in plasma ([3]; 3×ACP i.p. once): significantly inhibited | level of inflammatory cytokines (TNF-α, IL-1β, IL-6, IL-17) in plasma ([3]; 6×ACP i.p. once): significantly inhibited | orexin reduction in the hypothalamus [4]: recovered significantly almost to the same level of the control group | increased F4/80 positive cells in the bone (femur) [5]: significantly reduced
